Data taken from ChEMBL document CHEMBL1201862, “PubChem BioAssay data set” (2004).
Activity calls are given as the source filed them.

Key:
[1] = test system: Jurkat; experiment: SAR Analysis of small molecule inhibitors of T-cell specific antigen receptor-induced NF-kB activation in a Jurkat cell line using a luminescence assay - Set 2. [Related pubchem assays (depositor defined):AID435003, AID435012, AID465]; type: functional, cell-based; conditions: Homo sapiens
[2] = cells; type: functional, cell-based
[3] = test system: HEK293; experiment: EBV LMP1 TES2 canonical NF-kB signalling blockers – cell-based, HEK293, luciferase, cherry-pick, dose response (AID 588343); type: functional; conditions: Homo sapiens
[4] = DRD fibroblast viability loss – cell-based, non-viral oncogenic, luminescence, dose response (AID 1934); type: functional; conditions: Homo sapiens
[5] = test system: BJ; experiment: BJ-TERT-LT-ST fibroblast viability loss – cell-based, RAS-independent, luminescence, dose response (AID 1935); type: functional; conditions: Homo sapiens;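 further: BJ fibroblasts immortalized with TERT plus LT and ST oncogenes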
[6] = test system: BJ; experiment: BJ-TERT fibroblast viability loss – cell-based, RAS-independent, luminescence, dose response (AID 1933); type: functional; conditions: Homo sapiens
[7] = target: Nonstructural protein 1 (Influenza A virus, UniProt Q194T2); type: functional, Influenza A virus (A/California/07/2009(H1N1))
[8] = HepG2 cell cytotoxicity, dose response, cytotoxicity control for non-replicating M. tuberculosis project (AID 489018); type: functional; conditions: Mycobacterium tuberculosis
[9] = target: T1, Ubiquitin-conjugating enzyme E2 N (Homo sapiens, UniProt P61088); type: functional;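 further: Dose-response confirmation in a TR-FRET assay detecting UBC13-driven polyubiquitin chain formation, inhibition measured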
T1 sequence (P61088 whole entry): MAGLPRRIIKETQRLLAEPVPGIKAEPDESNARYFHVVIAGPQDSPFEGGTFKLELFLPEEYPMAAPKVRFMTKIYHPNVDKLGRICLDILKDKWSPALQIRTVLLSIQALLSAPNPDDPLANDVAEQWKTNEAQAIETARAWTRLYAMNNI

[10] = Luminescence Cell-Based Dose Response HTS to Identify Inhibitors of 5'UTR Stem-Loop Driven Prion Protein mRNA Translation in H4 Neuroglioblastoma Cells. [Related pubchem assays: 1827 (Project Summary), 1813 (Primary HTS)]; type: functional
[11] = target: T2, Tyrosyl-DNA phosphodiesterase 2 (Homo sapiens, UniProt O95551); experiment: potency against TDP2 phosphodiesterase activity – biochemical, epi absorbance, IC50, dose response (AID 743297)
T2 sequence (O95551 whole entry): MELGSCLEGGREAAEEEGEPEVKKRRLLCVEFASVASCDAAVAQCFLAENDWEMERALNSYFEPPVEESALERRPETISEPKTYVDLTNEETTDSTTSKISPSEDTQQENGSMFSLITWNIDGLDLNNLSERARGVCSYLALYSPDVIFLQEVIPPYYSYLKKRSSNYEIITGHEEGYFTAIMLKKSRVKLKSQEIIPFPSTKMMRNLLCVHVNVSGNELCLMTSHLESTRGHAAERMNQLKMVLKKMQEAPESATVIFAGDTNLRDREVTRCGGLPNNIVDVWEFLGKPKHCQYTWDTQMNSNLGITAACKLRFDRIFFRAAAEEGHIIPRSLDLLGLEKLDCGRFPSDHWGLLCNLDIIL

[12] = target: T3, Heat shock factor protein 1 (Mus musculus, UniProt P38532); experiment: decrease of HSF1-responsive luciferase luminescence – cell-based, NIH3T3, dose retest, confirmation (AID 2382); type: functional;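 further: NIH3T3 fibroblasts with HSF1-driven luciferase reporter stressed by proteasome inhibitor MG132; luminescence from HSF1-driven luciferase expression after 8 hours of MG132 stress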
T3 sequence (P38532 whole entry): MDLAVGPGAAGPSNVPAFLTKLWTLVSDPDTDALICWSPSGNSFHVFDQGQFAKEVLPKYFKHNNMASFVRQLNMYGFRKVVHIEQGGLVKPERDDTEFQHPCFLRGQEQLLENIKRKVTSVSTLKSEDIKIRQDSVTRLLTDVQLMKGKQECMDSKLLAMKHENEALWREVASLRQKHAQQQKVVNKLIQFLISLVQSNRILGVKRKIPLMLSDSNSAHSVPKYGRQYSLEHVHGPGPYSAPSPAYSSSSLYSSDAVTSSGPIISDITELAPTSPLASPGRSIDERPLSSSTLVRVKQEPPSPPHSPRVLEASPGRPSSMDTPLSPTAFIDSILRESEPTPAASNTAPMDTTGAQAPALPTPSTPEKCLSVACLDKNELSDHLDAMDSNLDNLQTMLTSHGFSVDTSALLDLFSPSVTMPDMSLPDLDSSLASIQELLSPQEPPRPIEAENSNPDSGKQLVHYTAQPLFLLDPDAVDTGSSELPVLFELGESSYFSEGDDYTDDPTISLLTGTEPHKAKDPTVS

[13] = target: Beta-galactosidase (Escherichia coli, UniProt Q8VNN2); experiment: PubChem AID 485352; type: functional
[14] = target: T4, Streptokinase A (Streptococcus pyogenes serotype M1, UniProt P10520); experiment: viability-normalized secreted streptokinase activity reduction – plasminogen activation absorbance, OD405, dose response (AID 1914); type: functional, Streptococcus pyogenes M1 GAS;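 further: secreted streptokinase activity via plasminogen activation per viability signal from cell pellet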
T4 sequence (P10520 whole entry): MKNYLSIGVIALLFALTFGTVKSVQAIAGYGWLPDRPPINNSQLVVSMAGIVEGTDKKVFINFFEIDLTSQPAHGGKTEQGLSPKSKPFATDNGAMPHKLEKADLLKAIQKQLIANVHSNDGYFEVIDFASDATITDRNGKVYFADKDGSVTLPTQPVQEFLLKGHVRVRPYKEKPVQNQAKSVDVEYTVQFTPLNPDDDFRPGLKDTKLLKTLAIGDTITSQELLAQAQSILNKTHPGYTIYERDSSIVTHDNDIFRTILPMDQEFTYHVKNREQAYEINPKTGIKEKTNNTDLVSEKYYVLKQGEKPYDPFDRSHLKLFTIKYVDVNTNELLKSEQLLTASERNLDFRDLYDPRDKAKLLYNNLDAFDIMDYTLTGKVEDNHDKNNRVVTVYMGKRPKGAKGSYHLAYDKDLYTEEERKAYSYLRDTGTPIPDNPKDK

[15] = target: T5, Mitochondrial peptide methionine sulfoxide reductase (Bos taurus, UniProt P54149); experiment: Absorbance-based biochemical high throughput dose response assay for activators of Methionine sulfoxide reductase A (MsrA).; type: functional
T5 sequence (P54149 whole entry): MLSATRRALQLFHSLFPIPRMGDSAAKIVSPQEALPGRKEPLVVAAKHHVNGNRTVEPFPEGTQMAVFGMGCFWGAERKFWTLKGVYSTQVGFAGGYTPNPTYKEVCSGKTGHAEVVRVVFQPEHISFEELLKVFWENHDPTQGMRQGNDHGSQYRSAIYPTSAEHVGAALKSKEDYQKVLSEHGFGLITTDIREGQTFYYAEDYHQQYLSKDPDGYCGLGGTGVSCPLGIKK

[16] = test system: HeLa; experiment: ATP-based viability loss in HeLa cells – cell-based, CellTiter-Glo luminescence, cherry-pick samples, cytotoxicity control for MITF activator project, dose response (AID 540259); type: functional; conditions: Homo sapiens

Sequence of Nonstructural protein 1 (Q194T2 whole entry): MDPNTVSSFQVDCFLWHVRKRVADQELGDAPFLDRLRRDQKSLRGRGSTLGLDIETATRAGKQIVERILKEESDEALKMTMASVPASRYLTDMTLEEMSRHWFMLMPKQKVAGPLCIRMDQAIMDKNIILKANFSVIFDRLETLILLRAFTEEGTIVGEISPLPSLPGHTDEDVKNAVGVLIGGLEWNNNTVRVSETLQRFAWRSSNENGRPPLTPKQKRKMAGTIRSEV
Sequence of Beta-galactosidase (Q8VNN2 whole entry): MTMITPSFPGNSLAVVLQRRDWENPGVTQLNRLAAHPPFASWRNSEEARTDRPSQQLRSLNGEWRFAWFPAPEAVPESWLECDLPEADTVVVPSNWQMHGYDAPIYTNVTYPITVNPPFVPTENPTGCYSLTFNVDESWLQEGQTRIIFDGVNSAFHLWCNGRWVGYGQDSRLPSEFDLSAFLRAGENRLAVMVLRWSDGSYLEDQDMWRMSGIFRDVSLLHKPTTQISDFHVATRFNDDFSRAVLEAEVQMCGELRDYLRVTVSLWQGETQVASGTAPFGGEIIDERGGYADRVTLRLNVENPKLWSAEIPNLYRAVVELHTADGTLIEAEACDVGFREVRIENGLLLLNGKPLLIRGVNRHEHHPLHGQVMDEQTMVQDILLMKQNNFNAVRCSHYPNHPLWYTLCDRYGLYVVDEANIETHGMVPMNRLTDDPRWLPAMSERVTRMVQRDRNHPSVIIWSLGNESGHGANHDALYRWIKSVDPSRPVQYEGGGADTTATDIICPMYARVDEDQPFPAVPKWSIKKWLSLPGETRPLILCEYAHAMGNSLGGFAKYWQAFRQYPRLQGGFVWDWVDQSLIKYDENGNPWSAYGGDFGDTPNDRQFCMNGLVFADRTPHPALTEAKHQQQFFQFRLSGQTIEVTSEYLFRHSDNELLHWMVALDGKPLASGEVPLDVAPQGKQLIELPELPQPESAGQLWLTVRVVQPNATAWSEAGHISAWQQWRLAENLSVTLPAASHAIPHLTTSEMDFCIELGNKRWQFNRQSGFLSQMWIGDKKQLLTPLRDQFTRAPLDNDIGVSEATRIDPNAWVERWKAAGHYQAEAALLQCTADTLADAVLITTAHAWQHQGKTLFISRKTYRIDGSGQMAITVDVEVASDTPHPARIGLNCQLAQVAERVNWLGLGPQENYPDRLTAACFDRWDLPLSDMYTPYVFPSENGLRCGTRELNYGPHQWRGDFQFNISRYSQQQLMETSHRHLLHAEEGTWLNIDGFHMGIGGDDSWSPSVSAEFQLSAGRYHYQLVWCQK

Question: What does the source list for CC(=O)NC(c1ccc2ccccc2c1)c1ccc2cccnc2c1O (stereo unspecified)?
Answer: IC50 [1]: 1.89 µM (active); EC50 [2]: > 350 µM (not active); AC50 [3]: 4.18 µM (active); EC50 [4]: 6.52 µM (active); EC50 [5]: 6.07 µM (inconclusive); EC50 [6]: 0.687 µM (active)

Question: With CCOC(=O)C1=C(c2ccccc2)N=C(N)NC1c1ccc(OCc2ccc(Cl)cc2)c(OC)c1 (stereo unspecified) as the compound, how does the IC50 [7] read?
Answer: 79.2 µM (active)

Question: And the CC50 [8]?
Answer: 13.1 µM (active)

Question: What about the IC50 [9] of the same compound?
Answer: > 20 µM (inactive)

Question: Which EC50 [10] does the source give for CCOC(=O)c1c(C)[nH]c2c1-c1ccccc1C(=O)C2=O here?
Answer: 1.35 µM (active)

Question: What about the IC50 [11] of the same compound?
Answer: 0.915 µM (active)

Question: What about the EC50 [12] of the same compound?
Answer: 1.57 µM (active)

Question: With O=[N+]([O-])c1c(NCCO)cc(Sc2nc3ccccc3s2)c2nonc12 as the compound, how does the EC50 [13] read?
Answer: > 40 µM (inactive)

Question: And the EC50 [14]?
Answer: > 150 µM (not active)

Question: Which EC50 [15] does the source give for O=C(c1ccccc1)c1coc2c1C(=O)c1ccccc1C2=O here?
Answer: 37.7 µM (inactive)

Question: Which AC50 [16] does the source give for COc1ccc2c(c1)CCC(/C=N/c1ccc3c(c1)OCO3)=C2O here?
Answer: 48.4 µM (active)
